These results are taken from patent publication US8269000B2, “Substituted pyrimidine and triazine compounds” (Gruenenthal GmbH, priority 2008, dated 2012).

The first test concerns the target T1, rat B1R (Rattus norvegicus, UniProt P97583).
T1 construct: expressed in transfected cells; host or cells: CHO K1 cells
T1 sequence (P97583 1-337): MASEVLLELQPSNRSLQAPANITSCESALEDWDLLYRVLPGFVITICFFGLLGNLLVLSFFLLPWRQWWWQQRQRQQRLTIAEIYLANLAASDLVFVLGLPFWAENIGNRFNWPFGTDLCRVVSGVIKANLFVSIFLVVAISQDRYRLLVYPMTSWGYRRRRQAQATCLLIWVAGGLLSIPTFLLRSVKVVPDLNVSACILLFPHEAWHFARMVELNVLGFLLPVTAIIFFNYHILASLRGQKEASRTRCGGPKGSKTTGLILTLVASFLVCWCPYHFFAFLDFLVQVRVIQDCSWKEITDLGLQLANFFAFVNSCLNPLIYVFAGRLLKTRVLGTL
Nature of the test: FLIPR Ca2+ functional study on bradykinin receptor 1 (rB1R CHO K1 cells). Format: cell-based. The note with it: % inhibition rat B1R at 10 μM. The gist of the method:
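Antagonism was calculated as % of maximal inhibition of the Ca2+ rise triggered by agonist at EC80 (Lys-Des-Arg9-bradykinin for hB1R, Des-Arg9-bradykinin for rB1R), added 10-20 min after test compound (10 μM or serial dilutions for IC50) to Fluo-4-loaded transfected CHO K1 cells on FLIPR. Duplicates or triplicates, ≥2 independent runs.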
Regarding “(1S,5R)-8-[4-[[(2S)-1-[(4-methoxy-2,6-dimethyl-phenyl)sulfonyl]-pyrrolidin-2-yl]-methoxy]-pyrimidin-2-yl]-3-pyridin-4-yloxy-8-azabicyclo[3.2.1]octane [H_CC-052]”, the “% inh. (rat B1R) 10 μM” value came out at 72%.

Still in this test, the particulars now being: CHO-K1, % inhibition rat B1R at 10 μM, read-out: % inh. (rat B1R) 10 μM.
Turning to `COc1cc(C)c(S(=O)(=O)N2c3ccccc3C[C@H]2COc2ccnc(N(C)CCCN3CCC(c4ccccc4)(N(C)C)CC3)n2)c(C)c1` [H_CC-075, 3-(4-dimethylamino-4-phenyl-piperidin-1-yl)-propyl-[4-[[(2S)-1-[(4-methoxy-2,6-dimethyl-phenyl)sulfonyl]-2,3-dihydro-1H-indol-2-yl]-methoxy]-pyrimidin-2-yl]-methyl-amine], the inhibition at 10 µM was found to be 75%.

Consider `COc1cc(C)c(S(=O)(=O)N2CC(Oc3ccnc(N4CCC(O)(c5cccnc5)CC4)n3)C2)c(C)c1` [H_CC-076, 1-[4-[1-[(4-methoxy-2,6-dimethyl-phenyl)sulfonyl]-azetidin-3-yl]oxy-pyrimidin-2-yl]-4-pyridin-3-yl-piperidin-4-ol], for which the inhibition at 10 µM stood at 69%.

Turning to `COc1cc(C)c(S(=O)(=O)N2CC(Oc3ccnc(N4CCCN(Cc5ccccn5)CC4)n3)C2)c(C)c1` [H_CC-077, 1-[4-[1-[(4-methoxy-2,6-dimethyl-phenyl)sulfonyl]-azetidin-3-yl]oxy-pyrimidin-2-yl]-4-(pyridin-2-yl-methyl)-[1,4]diazepan], the inhibition at 10 µM was determined as 58%.

As for `COc1cc(C)c(S(=O)(=O)N2CCCCC2COc2ccnc(N3CCCC3Cc3ccccn3)n2)c(C)c1` (stereo not shown) [H_CC-078, 4-[[1-[(4-methoxy-2,6-dimethyl-phenyl)sulfonyl]-piperidin-2-yl]-methoxy]-2-[2-(pyridin-2-yl-methyl)-pyrrolidin-1-yl]-pyrimidine], the inhibition at 10 µM is 77%.

In the case of `COc1cc(C)c(S(=O)(=O)N2CCCCC2COc2ccnc(N3CCC(Oc4ccccn4)CC3)n2)c(C)c1` (stereo not shown) [H_CC-079, 4-[[1-[(4-methoxy-2,6-dimethyl-phenyl)sulfonyl]-piperidin-2-yl]-methoxy]-2-(4-pyridin-2-yloxy-piperidin-1-yl)-pyrimidine], the inhibition at 10 µM was determined as 73%.

For `COc1cc(C)c(S(=O)(=O)N2CCCCC2COc2ccnc(N3CCC(C)(N4CCOCC4)CC3)n2)c(C)c1` (stereo not shown) [H_CC-081, 4-[1-[4-[[1-[(4-methoxy-2,6-dimethyl-phenyl)sulfonyl]-piperidin-2-yl]-methoxy]-pyrimidin-2-yl]-4-methyl-piperidin-4-yl]-morpholine], the inhibition at 10 µM is 61%.

Turning to `COc1cc(C)c(S(=O)(=O)N2CCCCC2COc2ccnc(N3CCC(CCCN4CCCC4)(c4cccnc4)CC3)n2)c(C)c1` (stereo not shown) [H_CC-082, 4-[[1-[(4-methoxy-2,6-dimethyl-phenyl)sulfonyl]-piperidin-2-yl]-methoxy]-2-[4-pyridin-3-yl-4-(3-pyrrolidin-1-yl-propyl)piperidin-1-yl]-pyrimidine], the inhibition at 10 µM turned out to be 72%.

Regarding `COc1cc(C)c(S(=O)(=O)N2CCCCC2COc2ccnc(N3CCC(O)(c4ccccn4)CC3)n2)c(C)c1` (stereo not shown) [H_CC-083, 1-[4-[[1-[(4-methoxy-2,6-dimethyl-phenyl)sulfonyl]-piperidin-2-yl]-methoxy]-pyrimidin-2-yl]-4-pyridin-2-yl-piperidin-4-ol], the inhibition at 10 µM amounted to 59%.

With `COc1cc(C)c(S(=O)(=O)N2CCC[C@@H]2COc2ccnc(N3CCCC3Cc3ccccn3)n2)c(C)c1` (stereo partly drawn) [H_CC-084, 4-[[(2R)-1-[(4-methoxy-2,6-dimethyl-phenyl)sulfonyl]-pyrrolidin-2-yl]-methoxy]-2-[2-(pyridin-2-yl-methyl)-pyrrolidin-1-yl]-pyrimidine], the inhibition at 10 µM worked out at 55%.

On to `COc1cc(C)c(S(=O)(=O)N2CCC[C@H]2COc2ccnc(N3CCC(c4ccccc4)(N(C)C)CC3)n2)c(C)c1` [H_CC-085, [1-[4-[[(2S)-1-[(4-methoxy-2,6-dimethyl-phenyl)sulfonyl]-pyrrolidin-2-yl]-methoxy]-pyrimidin-2-yl]-4-phenyl-piperidin-4-yl]-dimethyl-amine], for which the inhibition at 10 µM is 70%.

`COc1cc(C)c(S(=O)(=O)N2CCC[C@H]2COc2ccnc(N3CCC(c4cccs4)(N(C)C)CC3)n2)c(C)c1` [H_CC-086, [1-[4-[[(2S)-1-[(4-methoxy-2,6-dimethyl-phenyl)sulfonyl]-pyrrolidin-2-yl]-methoxy]-pyrimidin-2-yl]-4-thiophen-2-yl-piperidin-4-yl]-dimethyl-amine]: the inhibition at 10 µM was 66%.

With `COc1cc(C)c(S(=O)(=O)N(C)CCOc2ccnc(N3CCCC3Cc3ccccn3)n2)c(C)c1` (stereo not shown) [H_CC-087, 4-methoxy-N,2,6-trimethyl-N-[2-[2-[2-(pyridin-2-yl-methyl)-pyrrolidin-1-yl]-pyrimidin-4-yl]oxy-ethyl]-benzenesulfonic acid amide], the inhibition at 10 µM came out at 57%.

As to `COc1cc(C)c(S(=O)(=O)N2CCC[C@H]2COc2ccnc(N3CCCC3Cc3ccccn3)n2)c(C)c1` (stereo partly drawn) [H_CC-088, 4-[[(2S)-1-[(4-methoxy-2,6-dimethyl-phenyl)sulfonyl]-pyrrolidin-2-yl]-methoxy]-2-[2-(pyridin-2-yl-methyl)-pyrrolidin-1-yl]-pyrimidine], the inhibition at 10 µM was determined as 67%.

`COc1cc(C)c(S(=O)(=O)N(C)CCOc2ccnc(N(C)CCN3CCC(Oc4ccncc4)CC3)n2)c(C)c1` [H_CC-089, 4-methoxy-N,2,6-trimethyl-N-[2-[2-[methyl-[2-(4-pyridin-4-yloxy-piperidin-1-yl)-ethyl]-amino]-pyrimidin-4-yl]oxy-ethyl]benzenesulfonic acid amide]: the inhibition at 10 µM amounted to 58%.

On to `COc1cc(C)c(S(=O)(=O)N(C)CCOc2ccnc(N3CCC(OCCN4CCCC4)(c4cccc(F)c4)CC3)n2)c(C)c1` [H_CC-090, N-[2-[2-[4-(3-fluorophenyl)-4-(2-pyrrolidin-1-yl-ethoxy)-piperidin-1-yl]-pyrimidin-4-yl]oxy-ethyl]-4-methoxy-N,2,6-trimethyl-benzenesulfonic acid amide], for which the inhibition at 10 µM stood at 83%.

On to `COc1cc(C)c(S(=O)(=O)N2CCCCC2COc2ccnc(N3CCC(c4cccc(F)c4)(N4CCN(C)CC4)CC3)n2)c(C)c1` (stereo not shown) [H_CC-091, 2-[4-(3-fluorophenyl)-4-(4-methyl-piperazin-1-yl)-piperidin-1-yl]-4-[[1-[(4-methoxy-2,6-dimethyl-phenyl)sulfonyl]-piperidin-2-yl]-methoxy]-pyrimidine], for which the inhibition at 10 µM was 73%.

On to `COc1cc(C)c(S(=O)(=O)N2CCC[C@H]2COc2ccnc(N3CCC(OCCN4CCCC4)(c4cccc(F)c4)CC3)n2)c(C)c1` [H_CC-092, 2-[4-(3-fluorophenyl)-4-(2-pyrrolidin-1-yl-ethoxy)-piperidin-1-yl]-4-[[(2S)-1-[(4-methoxy-2,6-dimethyl-phenyl)sulfonyl]-pyrrolidin-2-yl]-methoxy]-pyrimidine], for which the inhibition at 10 µM stood at 50%.

`COc1cc(C)c(S(=O)(=O)N(C)C(COc2ccnc(N3[C@@H]4CC[C@H]3CC(Oc3ccncc3)C4)n2)c2ccccc2)c(C)c1` (stereo partly drawn) [H_CC-093, 4-methoxy-N,2,6-trimethyl-N-[1-phenyl-2-[2-[(1S,5R)-3-pyridin-4-yloxy-8-azabicyclo[3.2.1]octan-8-yl]-pyrimidin-4-yl]oxy-ethyl]-benzenesulfonic acid amide]: the inhibition at 10 µM turned out to be 63%.
